Measurements: publication PMC10959927, “Platinum iodido drugs show potential anti-tumor activity, affecting cancer cell metabolism and inducing ROS and senescence in gastrointestinal cancer cells” (Communications Biology, 2024)
Values joined by “and” are separate entries in the source; they are usually repeats but may differ in a detail not shown here. Identical values can stand only once.

What was measured:
Type in all cases: cell-based, human
[1] = system: telomeres, 36B4, MT-COX1, MT-CYB DNA of MKN45 cells; experiment: Oxidized bases (FPG-sensitive lesions) in genome regions by qPCR; settings: MKN45, IC50 concentration 24 h, normalized to control, single replicates
Text: (§1) Total cellular DNA from MKN45 and PANC1 cells was extracted using an NZY Tissue gDNA Isolation Kit (Nzytech, MB13503) following the manufacturer’s instructions and quantified using a Nanodrop (Nanodrop Spectrophotometer ND-1000, ThermoFisher Scientific, Wilmington, DE, USA). We adapted the procedure described by O’Callaghan et al.[76] to measure oxidative DNA damage at telomeres, 36B4 genomic region and at mitochondrial DNA (MT-COX1, MT-CYB). This is a qPCR method based on differences in PCR kinetics between DNA template digested by Formamidopyrimidine DNA Glycosylase (FPG, Cat no. M0240S) and undigested DNA. This enzyme recognizes and cuts 8-oxoguanine, producing apurinic sites that are converted into single-strand breaks by its apurinic sites lyase activity. These single-strand breaks inhibit the PCR, thus, the ΔCT after digesting DNA by […] (Ct digested–Ct undigested) is proportional to the oxidative damage in the amplified region. DNA was incubated with 8 Units of FPG during 3 h in FPG buffer (NEB1, M0240S). The reaction was stopped by incubation at 95 °C for 5 min. qPCR analysis was performed on 40 ng of digested or undigested genomic DNA. Each qPCR was performed in triplicate including no-template controls in a StepOne Real‐time PCR System (Applied Biosystems, 4376357). Target genes (Table 3) were amplified using SYBR Green (Applied Biosystems, MB345). Thermal cycling of the qPCR reaction was initiated with a denaturation step at 95 °C for 10 min. The process consisted of 40 cycles (denaturation at 95 °C for 15 sec, annealing at 60 °C for 30 sec, and elongation at 72 °C for 30 sec). This experiment was repeated three independent times with 10–12 replicates.

[2] = system: telomeres, 36B4, MT-COX1, MT-CYB DNA of PANC1 cells; experiment: as above; settings: PANC1, IC50 concentration 24 h, normalized to control, single replicates
Text: as §1

MKN45 cells [3] = experiment: Clonogenic (CFU) assay with or without NAC; settings: 10 days
Protocol: (§2) For the clonogenic assay we used two different approaches. […] Then, cells were cultured in a 6-well plate at a very low concentration (2 × 10^3 cells per well) and incubated for 10 days. […] To evaluate the role of ROS in cell proliferation, we supplemented the growth medium with 0.5 mM NAC. After 10 days, the cells were fixed with 1% glutaraldehyde and stained with 0.1% crystal violet. The number of colonies was quantified directly and reflected as CFUs: Colony Forming Units.

AGS cells [4] = experiment: Clonogenic (CFU) assay with or without NAC; settings: 10 days
Protocol: as §2

PANC1 cells [5] = experiment: Immunofluorescence of γ-H2AX and 53BP1 foci; settings: for foci/cell, share of cells in class (Suma 100) / foci/cell, number of cells in class: PANC1, Fig. 3B; for foci/cell, number of cells in class: cell count
Protocol: (§3) Cells (7 × 10^4) were seeded on 20 mm coverslips. […] Coverslips were incubated for 1 h with the primary antibody (Cell Signaling: H2AX Ser139 (#2595) and 53BP1 (#4937)) at room temperature, followed by a 1 h incubation with the appropriate secondary antibody. DNA was stained with DAPI. Fluorescence microscopy was performed using a NIKON Eclipse 90i. The image analysis was performed using the software program Nikon NIS-Elements and Image J.

AGS cells [6] = experiment: Immunofluorescence of γ-H2AX and 53BP1 foci; settings: for foci/cell, share of cells in class (Suma 100) / foci/cell, number of cells in class: Fig. 3B; for foci/cell, number of cells in class: cell count
Protocol: as §3

PANC1 cells [7] = experiment: Clonogenic (CFU) assay after 1, 3, 24 h pre-treatment
Protocol: as §2

MKN45 cells [8] = experiment: SA-β-Gal activity, CellEvent Senescence Green flow cytometry;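 note: IC50 concentration of each compound relative to untreated control set as 1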; settings: Fig. 3A, replicate values
Protocol: (§4) SA-β-Gal activity was measured following two different approaches. (i) AGS, MKN45 and PANC1 cells (5 × 10^4) were seeded in 24-multiwell dishes and incubated overnight. […] For flow cytometry cell senescence detection, cells were tripsinized, fixed for 15 min with PFA 4% and stained with the CellEvent Senescense Green Flow Cytometry Assay Kit (C10840, Invitrogen) according to manufacturer’s instructions. CellEvent Senescense Green Probe was used at a 1:500 dilution and fluorescence was detected using the filter (Ex488nm/Em530/30) BL1 with a 4-laser Attune NxT Acoustic Cytometer (Thermo Fisher Scientific). […] After 3 h, the treatments were removed, new supplemented medium was added, and cells were incubated for an additional 24 h. Finally, SA-β-Gal staining was performed using the Senescence Cells Histochemical Staining Kit (CS0030-1KT) according to the manufacturer’s instructions.

PANC1 cells [9] = experiment: as above; settings: Fig. 3A, replicate values
Protocol: as §4

AGS cells [10] = experiment: as above; settings: Fig. 3A, replicate values
Protocol: as §4
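Throughout, for Fold change % Senescence: IC50 concentration of each compound relative to untreated control set as 1.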

## CC(C)[NH][Pt@SP3]([I])([I])[NH]C(C)C [I5, trans-[PtI2(isopropylamine)2]]
[1]; FPG-digested vs undigested
  TEL (Fold change - ΔCt TEL), oxidative DNA damage: 0.4976 and 1.204 and 0.863 and 1.649 and 1.472 and 1.233 and 1.0991 and 1.079 and 1.087 and 1.22
[1]
  36B4 (Fold change - ΔCt 36B4), oxidative DNA damage: 1.703 and 1.211 and 0.8373 and 1.374 and 1.447 and 1.358 and 1.5791 and 1.8961 and 1.25 and 1.252 and 1.777
  MT-COX1 (Fold change - ΔCt MT-COX1), oxidative DNA damage: 1.17 and 1.1588 and 1.212 and 1.316 and 0.8751 and 0.7769 and 2.591 and 2.527 and 2.762 and 3.255
  MT-CYB (Fold change - ΔCt MT-CYB), oxidative DNA damage: 1.053 and 0.8867 and 1.024 and 1.423 and 1.446 and 1.223 and 1.361 and 1.391 and 5.526 and 1.559 and 1.507 and 3.466
[2]; FPG-digested vs undigested
  TEL (Fold change - ΔCt TEL), oxidative DNA damage: -0.2993 and -0.2888 and -0.1094 and 0.05784 and 0.7794 and 0.6409 and 1.117 and 1.284 and 1.153 and 1.2407
[2]
  36B4 (Fold change - ΔCt 36B4), oxidative DNA damage: 1.4221 and 1.29 and 0.7644 and 2.073 and 2.467 and 2.333 and 2.539 and 4.489 and 2.165 and 1.996 and 1.737
  MT-COX1 (Fold change - ΔCt MT-COX1), oxidative DNA damage: 1.203 and 1.298 and 1.208 and 1.316 and 1.536 and 0.9948 and 1.085 and 1.109 and 1.083 and 1.329
  MT-CYB (Fold change - ΔCt MT-CYB), oxidative DNA damage: 1.015 and 1.063 and 1.122 and 1.165 and 2.0159 and 1.972 and 2.298 and 2.283 and 3.887 and 4.47 and 3.714 and 6.805
MKN45 cells [3]; MKN45 + NAC 0.5 mM, IC25 concentration
  colonies (CFUs), mean ± SD: 99 ± 6
MKN45 cells [3]; MKN45 + NAC 0.5 mM, IC50 concentration
  colonies (CFUs), mean ± SD: 52 ± 21
MKN45 cells [3]; MKN45, IC25 concentration, no NAC
  colonies (CFUs), mean ± SD: 0
MKN45 cells [3]; MKN45, IC50 concentration, no NAC
  colonies (CFUs), mean ± SD: 0
AGS cells [4]; AGS + NAC 0.5 mM, IC25 concentration
  colonies (CFUs), mean ± SD: 106 ± 46
AGS cells [4]; AGS + NAC 0.5 mM, IC50 concentration
  colonies (CFUs), mean ± SD: 2.3 ± 2.5
AGS cells [4]; AGS, IC25 concentration, no NAC
  colonies (CFUs), mean ± SD: 0
AGS cells [4]; AGS, IC50 concentration, no NAC
  colonies (CFUs), mean ± SD: 0
PANC1 cells [5]; PANC1, Fig. S4B, cell counts
  foci/cell: number of cells with 16-30 foci: 11
  foci/cell: number of cells with 31-45 foci: 3
  foci/cell: number of cells with 46-60 foci: 1
  foci/cell: number of cells with <15 foci: 18
  foci/cell: number of cells with >61 foci: 0
PANC1 cells [5]; PANC1, Fig. S4B, share of N
  foci/cell: share of cells with 16-30 foci (Suma 100): 33.3333
  foci/cell: share of cells with 31-45 foci (Suma 100): 9.091
  foci/cell: share of cells with 46-60 foci (Suma 100): 3.0303
  foci/cell: share of cells with <15 foci (Suma 100): 54.5455
  foci/cell: share of cells with >61 foci (Suma 100): 0
PANC1 cells [5]; class 16-30 foci/cell
  foci/cell, share of cells in class (Suma 100): 26.9231
  foci/cell, number of cells in class: 7
PANC1 cells [5]; class 31-45 foci/cell
  foci/cell, share of cells in class (Suma 100): 26.9231
  foci/cell, number of cells in class: 7
PANC1 cells [5]; class 46-60 foci/cell
  foci/cell, share of cells in class (Suma 100): 15.3846
  foci/cell, number of cells in class: 4
PANC1 cells [5]; class <15 foci/cell
  foci/cell, share of cells in class (Suma 100): 3.846
  foci/cell, number of cells in class: 1
PANC1 cells [5]; class >61 foci/cell
  foci/cell, share of cells in class (Suma 100): 26.9231
  foci/cell, number of cells in class: 7
AGS cells [6]; class 16-30 foci/cell
  foci/cell, share of cells in class (Suma 100): 32.2835
  foci/cell, number of cells in class: 41
AGS cells [6]; class 31-45 foci/cell
  foci/cell, share of cells in class (Suma 100): 14.1732
  foci/cell, number of cells in class: 18
AGS cells [6]; class 46-60 foci/cell
  foci/cell, share of cells in class (Suma 100): 7.874
  foci/cell, number of cells in class: 10
AGS cells [6]; class <15 foci/cell
  foci/cell, share of cells in class (Suma 100): 37.0079
  foci/cell, number of cells in class: 47
AGS cells [6]; class >61 foci/cell
  foci/cell, share of cells in class (Suma 100): 8.661
  foci/cell, number of cells in class: 11
AGS cells [6]; Fig. S4B, cell counts
  foci/cell: number of cells with 16-30 foci: 24
  foci/cell: number of cells with 31-45 foci: 5
  foci/cell: number of cells with 46-60 foci: 2
  foci/cell: number of cells with <15 foci: 37
  foci/cell: number of cells with >61 foci: 0
AGS cells [6]; Fig. S4B, share of N
  foci/cell: share of cells with 16-30 foci (Suma 100): 35.2941
  foci/cell: share of cells with 31-45 foci (Suma 100): 7.353
  foci/cell: share of cells with 46-60 foci (Suma 100): 2.941
  foci/cell: share of cells with <15 foci (Suma 100): 54.4118
  foci/cell: share of cells with >61 foci (Suma 100): 0
PANC1 cells [7]; PANC1, 1 h pre-treatment at IC50, colonies after 10 days
  CFUs: 176 and 164 and 136
PANC1 cells [7]; PANC1, 3 h pre-treatment at IC50, colonies after 10 days
  CFUs: 104 and 76 and 68
MKN45 cells [8]
  Fold change % Senescence: 6.84 fold change and 6.77 fold change and 7.76 fold change
PANC1 cells [9]
  Fold change % Senescence: 2.58 fold change and 1.93 fold change and 2.21 fold change
AGS cells [10]
  Fold change % Senescence: 2.4 fold change and 2.38 fold change and 2.1 fold change
